Like-named read-outs stand apart in the source and are kept apart here.
How the values were obtained:
KAI1 promoter = KAI1 promoter luciferase reporter assay in transfected Caco2 cells; format: cell-based, human; conditions: Homo sapiens, Caco-2, 16 h, read-out: Relative KAI promoter activity
Method: Experiments were conducted to evaluate the metastasis-related promoter activity-increasing effects of the compounds according to the present invention. Specifically, the KAI1 promoter reporter vector was used. In this case, the pRL-TK vector, a vector expressing renilla luciferase, was used as an internal control indicating the transfection efficiency in each transfected well.
First, 24 hours before transfection, 2×10^6 human colon cancer cell line, Caco2) cells were cultured in 10 ml of DMEM containing 10% FBS and 1% penicillin/streptomycin on a 100-mm-diameter plate, and then transformed with 5 μg of a pRL-TK vector mixture containing a transfection reagent and the KAI1 promoter, and then cultured in a 5% CO2 incubator at 37° C. for 48 hours. Thereafter, the adherent cells were detached using trypsin and counted using a hemacytometer, and then 5×10^3 transfected Caco2 cells in 100 μl of DMEM containing 10% FBS and 1% penicillin/streptomycin were seeded into each well of a 96-well plate and cultured in a 5% CO2 incubator at 37° C. for 24 hours. Next, 1 μM of each of the 305 compounds prepared in Examples 1 to 305 was added to each well, and after 16 hours, 100 μl of a lysis buffer for analysis containing a luciferase substrate was added, and the cells were lysed with stirring for 20 minutes. After completion of lysis, the cells were measured for luciferase activity using a luciferase reporter assay system (Promega, USA). […] In addition, data were analyzed at a significance level of p<0.05 by one-way ANOVA (Tukey's HSD), and SPSS 17.0 (Chicago, USA) statistical program was used. In Table 14 to 20, PHA is the PHA-665752, and KIT is KITENIN.

[1] = system: invasion of colorectal cancer cells; experiment: In vivo relative invation (invasion; EV and KITENIN controls, no method described); conditions: relative to EV (=1); KIT = KITENIN
[2] = 1 μM compound, 16 hours, transfected Caco2 cells, luciferase activity relative to DMSO control (=1)

Compound | fold induction at 1 µM (KAI1 promoter; [2]) | In vivo relative invation [1] | fold induction at 1 µM (KAI1 promoter)
COc1cccc(C(=O)CNC(=O)c2cccc(CN3CCN(c4ccccn4)CC3)c2)c1 [Example 284, N-(2-(3-methoxyphenyl)-2-oxoethyl)-3-((4-(pyridin-2-yl)piperazin-1-yl)methyl)benzamide] | 1.44 | 1.276 | –
CC(C)NC(=O)COc1ccccc1C(=O)NCC(=O)c1ccccc1 [Example 226, 2-(2-(isopropylamino)-2-oxoethoxy)-N-(2-oxo-2-phenylethyl)benzamide] | 1.09 | 1.349 | –
O=C(CNC(=O)c1ccccc1OC1CCN(C(=O)c2cccc(C(F)(F)F)c2)CC1)c1ccccc1 [Example 192, N-(2-oxo-2-phenylethyl)-2-((1-(3-(trifluoromethyl)benzoyl)piperidin-4-yl)oxy)benzamide] | 0.92 | 1.25 | –
CC(C)CCNC(=O)COc1ccccc1C(=O)NCC(=O)c1ccccc1 [Example 229, 2-(2-(isopentylamino)-2-oxoethoxy)-N-(2-oxo-2-phenylethyl)benzamide] | 1.06 | 1.245 | –
O=C(CNC(=O)c1ccccc1OC1CCN(C(=O)c2ccc(Br)cc2)CC1)c1ccccc1 [Example 181, 2-((1-(4-bromobenzoyl)piperidin-4-yl)oxy)-N-(2-oxo-2-phenylethyl)benzamide] | 1.06 | 1.194 | –
O=C(CCc1ccccc1)NCC(=O)c1ccccc1 [Example 9, N-(2-oxo-2-phenylethyl)-3-phenylpropanamide] | 1.14 | 0.8419 | –
CN(CCO)Cc1cccc(C(=O)NCC(=O)c2ccccc2)c1 [Example 243, 3-(((2-hydroxyethyl) (methyl)amino)methyl)-N-(2-oxo-2-phenylethyl)benzamide] | 1.48 | 1.105 | –
O=C(CNC(=O)c1ccc(Cl)cc1)c1cccnc1 [Example 130, 4-chloro-N-(2-oxo-2-(pyridin-3-yl)ethyl)benzamide] | 1.32 | 0.9875 | –
O=C(CNC(=O)c1cccs1)c1ccccc1 [Example 18, N-(2-oxo-2-phenylethyl)thiophene-2-carboxamide] | 2.18 | 1.1 | –
CCC(=O)NCC(=O)c1cccnc1 [Example 136, N-(2-oxo-2-(pyridin-3-yl)ethyl) propionamide] | 1.17 | 1.297 | –
CC(Oc1ccccc1)C(=O)NCC(=O)c1ccccc1 (stereo not shown) [Example 2, N-(2-oxo-2-phenylethyl)-2-phenoxypropanamide] | – | 0.8651 | 1.14
CCCCC(=O)NCC(=O)c1ccccc1 [Example 20, N-(2-oxo-2-phenylethyl)pentanamide] | 0.99 | 1.217 | –
Cc1cccc(C(=O)NCC(=O)c2ccc(N(C)C)cc2)c1 [Example 98, N-(2-(4-(dimethylamino)phenyl)-2-oxoethyl)-3-methylbenzamide] | 2.64 | 1.121 | –
O=C(CNC(=O)c1ccc(F)cc1Cl)c1ccc(Cl)cc1 [Example 76, 2-chloro-N-(2-(4-chlorophenyl)-2-oxoethyl)-4-fluorobenzamide] | 0.83 | 1.12 | –
O=C(CNC(=O)c1cccc(OC(F)(F)F)c1)c1ccccc1 [Example 39, N-(2-oxo-2-phenylethyl)-3-(trifluoromethoxy)benzamide] | 1.21 | 0.5984 | –
CN(C)c1ccc(C(=O)CNC(=O)c2ccccc2F)cc1 [Example 90, N-(2-(4-(dimethylamino)phenyl)-2-oxoethyl)-2-fluorobenzamide] | 1.88 | 1.124 | –
CCCN(CCC)Cc1cccc(C(=O)NCC(=O)c2ccccc2)c1 [Example 248, 3-((dipropylamino)methyl)-N-(2-oxo-2-phenylethyl)benzamide] | 1.3 | 1.116 | –

— US20230150924A1, “NOVEL COMPOUND HAVING CANCER METASTASIS INHIBITORY ACTIVITY, PREPARATION METHOD THEREFOR, AND PHARMACEUTICAL COMPOSITION FOR INHIBITING CANCER METASTASIS AND INVASION OR TREATING COLORECTAL CANCER, COMPRISING COMPOUND” (CELLGENTEK CO., LTD., priority 2019, published 2023)
